Source: article PMC6934184, “Selective DNA-PKcs inhibition extends the therapeutic index of localized radiotherapy and chemotherapy” (The Journal of Clinical Investigation, 2019)

Biological target: T1, MET (cMet) (Homo sapiens, UniProt P08581)
T1 construct: purchased Thermo Fisher Scientific (Life Technologies) SelectScreen
Test: SelectScreen Z'LYTE
Format: biochemical
Method in brief: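 SelectScreen broad panel; activity (Z'LYTE, Adapta) plus binding formats. ATP: Km app for CSF1R Z'LYTE; 10 for CAMK1 Adapta. Readout = % per kinase.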

T1 sequence (P08581 25-1390): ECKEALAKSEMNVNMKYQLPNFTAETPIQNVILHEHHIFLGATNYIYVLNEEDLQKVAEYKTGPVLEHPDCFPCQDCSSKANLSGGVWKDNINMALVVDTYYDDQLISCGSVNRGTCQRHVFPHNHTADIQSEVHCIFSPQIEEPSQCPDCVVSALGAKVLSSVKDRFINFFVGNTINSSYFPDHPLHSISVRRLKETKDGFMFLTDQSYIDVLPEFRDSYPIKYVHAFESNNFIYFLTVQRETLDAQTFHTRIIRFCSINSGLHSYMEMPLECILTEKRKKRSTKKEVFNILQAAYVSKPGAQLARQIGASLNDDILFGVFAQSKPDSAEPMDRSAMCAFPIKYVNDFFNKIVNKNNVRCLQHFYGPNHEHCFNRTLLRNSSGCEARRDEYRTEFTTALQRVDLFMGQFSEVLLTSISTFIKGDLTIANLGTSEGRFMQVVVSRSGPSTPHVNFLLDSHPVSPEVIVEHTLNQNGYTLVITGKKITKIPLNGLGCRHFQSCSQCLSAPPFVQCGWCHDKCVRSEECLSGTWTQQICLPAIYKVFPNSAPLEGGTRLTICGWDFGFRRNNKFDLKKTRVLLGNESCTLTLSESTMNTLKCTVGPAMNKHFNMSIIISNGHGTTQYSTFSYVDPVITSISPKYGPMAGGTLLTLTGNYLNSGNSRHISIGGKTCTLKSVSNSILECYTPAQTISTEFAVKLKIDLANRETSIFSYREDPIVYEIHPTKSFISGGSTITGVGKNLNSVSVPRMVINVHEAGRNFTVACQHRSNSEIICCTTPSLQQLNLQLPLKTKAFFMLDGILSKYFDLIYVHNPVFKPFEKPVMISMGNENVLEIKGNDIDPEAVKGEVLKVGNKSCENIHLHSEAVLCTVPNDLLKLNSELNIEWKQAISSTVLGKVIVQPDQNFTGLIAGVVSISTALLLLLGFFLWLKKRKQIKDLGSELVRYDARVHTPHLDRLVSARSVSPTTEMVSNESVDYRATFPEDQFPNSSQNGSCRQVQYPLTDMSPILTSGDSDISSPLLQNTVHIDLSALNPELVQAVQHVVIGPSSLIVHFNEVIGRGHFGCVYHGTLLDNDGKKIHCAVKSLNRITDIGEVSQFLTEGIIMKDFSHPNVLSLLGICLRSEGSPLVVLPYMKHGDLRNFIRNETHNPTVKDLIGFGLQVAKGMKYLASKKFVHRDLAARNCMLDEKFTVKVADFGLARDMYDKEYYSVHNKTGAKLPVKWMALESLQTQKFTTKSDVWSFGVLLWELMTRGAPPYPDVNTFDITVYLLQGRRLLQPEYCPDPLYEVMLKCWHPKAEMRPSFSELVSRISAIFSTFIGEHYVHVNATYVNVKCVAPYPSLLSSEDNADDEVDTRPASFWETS

## CN(C(=O)CN1CCOCC1)c1ccc2sc3c(-c4cccc5c(=O)cc(N6CC7CCC(C6)O7)oc45)cccc3c2c1 [NU5455]
  inhibition at 1 µM: -15.1%
